The values below come from patent US7351742B2, “Sulfonamide derivatives for the treatment of diseases” (Pfizer Inc., priority 2004, dated 2008).

The structures appear in SMILES notation.

This test deals with T1, human β2 adrenergic receptor (Homo sapiens, UniProt P07550).
T1 construct: expressed in transfected cells; host or cells: CHO (Chinese Hamster Ovary) cells, CHOhβ2
T1 sequence (P07550 whole entry): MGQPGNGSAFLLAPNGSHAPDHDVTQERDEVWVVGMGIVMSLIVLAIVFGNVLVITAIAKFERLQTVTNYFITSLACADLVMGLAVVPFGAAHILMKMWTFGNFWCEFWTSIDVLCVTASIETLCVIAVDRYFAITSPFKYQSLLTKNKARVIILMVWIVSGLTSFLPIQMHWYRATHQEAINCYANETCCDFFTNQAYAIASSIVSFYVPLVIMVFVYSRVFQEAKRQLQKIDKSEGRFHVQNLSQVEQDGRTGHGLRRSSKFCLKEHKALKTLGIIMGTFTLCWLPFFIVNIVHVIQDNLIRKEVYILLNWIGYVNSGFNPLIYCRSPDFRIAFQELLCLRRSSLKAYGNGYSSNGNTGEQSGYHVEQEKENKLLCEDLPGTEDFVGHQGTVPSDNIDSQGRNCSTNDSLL
Description: β2 cAMP EC50 in CHO cells recombinantly expressing the human β2 adrenergic receptor (cAMP-Flashplate). The settings on record: CHOhβ2 cells, 1 hour incubation. The test is classed as cell-based. The procedure: According to another alternative, the agonist potency for the β2 receptor of the compounds of the formula (1) may also be determined by the measure of the concentration of compound according to the present invention required to produce half maximal effect (EC50) for the β2 receptor.
10 mM/100% DMSO (dimethylsulfoxide) stock of compound is diluted to required top dose in 4% DMSO. This top dose is used to construct a 10-point semi-log dilution curve, all in 4% DMSO. Isoprenaline (Sigma, 1-5627) was used as a standard in every experiment and for control wells on each plate. Data was expressed as % Isoprenaline response.
CHO (Chinese Hamster Ovary) cells recombinantly expressing the human β2 adrenergic receptor (from Kobilka et al., PNAS 84: 46-50, 1987 and Bouvier et al., Mol Pharmacol 33: 133-139 1988 CHOhβ2) were grown in Dulbeccos MEM/NUT MIX F12 (Gibco, 21331-020) supplemented with 10% foetal bovine serum (Sigma, F4135, Lot 90K8404 Exp 09/04), 2 mM glutamine (Sigma, G7513), 500 μg/ml geneticin (Sigma, G7034) and 10 μg/ml puromycin (Sigma, P8833). Cells were seeded to give about 90% confluency for testing.
25 μl/well each dose of compound was transferred into a cAMP-Flashplate® (NEN, SMP004B), with […] as basal controls and 100 nM Isoprenaline as max controls. This was diluted 1:2 by the addition of 25 μl/well PBS. Cells were trypsinised (0.25% Sigma, T4049), washed with PBS (Gibco, 14040-174) and resuspended in stimulation buffer (NEN, SMP004B) to give 1×10^6 cells/ml CHOhB2. Compounds were incubated with 50 μl/well cells for 1 hour. Cells were then lysed by the addition of 100 μl/well detection buffer (NEN, SMP004B) containing 0.18 μCi/ml ^125I-cAMP (NEN, NEX-130) and plates were incubated at room temperature for a further 2 hours. The amount of ^125I-cAMP bound to the Flashplate® was quantified using a Topcount NXT (Packard), normal counting efficiency for 1 minute. Dose-response data was expressed as % Isoprenaline activity and fitted using a four parameter sigmoid fit.
The term EC50 denotes the midpoint of the concentration-response curve. As to `CC(C)(Cc1cccc(CC(=O)NCc2ccccc2)c1)NC[C@H](O)c1ccc(O)c(NS(C)(=O)=O)c1` [Example 1, N-Benzyl-2-(3-{2-[((2R)-2-hydroxy-2-{4-hydroxy-3-[(methylsulfonyl)amino]phenyl}ethyl)amino]-2-methylpropyl}phenyl)acetamide], the EC50 is 0.02 nM.

Take `CC(C)(Cc1cccc(CC(=O)NCCc2ccccc2)c1)NC[C@H](O)c1ccc(O)c(NS(C)(=O)=O)c1` [Example 25, 2-(3-{2-[((2R)-2-Hydroxy-2-{4-hydroxy-3-[(methylsulfonyl)amino]phenyl}ethyl)amino]-2-methylpropyl}phenyl)-N-(2-phenylethyl)acetamide]: the EC50 is 0.08 nM.

As to `C[C@H](Cc1ccc(CC(=O)NCc2ccccc2)cc1)NC[C@H](O)c1ccc(O)c(NS(C)(=O)=O)c1` [Example 76, N-Benzyl-2-(4-{(2R)-2-[((2R)-2-hydroxy-2-{4-hydroxy-3-[(methylsulfonyl)amino]phenyl}ethyl)amino]propyl}phenyl)acetamide], the EC50 came out at 0.02 nM.

In the case of `Cc1ccc(CNC(=O)Cc2cccc(C[C@@H](C)NC[C@H](O)c3ccc(O)c(NS(C)(=O)=O)c3)c2)cc1C` [Example 38, N-(3,4-Dimethylbenzyl)-2-(3-{(2R)-2-[((2R)-2-hydroxy-2-{4-hydroxy-3-[(methylsulfonyl)amino]phenyl}ethyl)amino]propyl}phenyl)acetamide], the EC50 was found to be 0.06 nM.

Turning to `CC(C)(Cc1cccc(CC(=O)NCc2ccc(F)cc2)c1)NC[C@H](O)c1ccc(O)c(NS(C)(=O)=O)c1` [Example 15, N-(4-Fluorobenzyl)-2-(3-{2-[((2R)-2-hydroxy-2-{4-hydroxy-3-[(methylsulfonyl)amino]phenyl}ethyl)amino]-2-methylpropyl}phenyl)acetamide], the EC50 was found to be 0.03 nM.

In the case of `C[C@H](Cc1cccc(CC(=O)NCc2ccccn2)c1)NC[C@H](O)c1ccc(O)c(NS(C)(=O)=O)c1` [Example 60, 2-(3-{(2R)-2-[((2R)-2-Hydroxy-2-{4-hydroxy-3-[(methylsulfonyl)amino]phenyl}ethyl)amino]propyl}phenyl)-N-(pyridin-2-ylmethyl)acetamide], the EC50 amounted to 0.02 nM.

In the case of `Cc1ccc(CNC(=O)Cc2cccc(CC(C)(C)NC[C@H](O)c3ccc(O)c(NS(C)(=O)=O)c3)c2)cc1` [Example 6, 2-(3-{2-[((2R)-2-hydroxy-2-{4-hydroxy-3-[(methylsulfonyl)amino]phenyl}ethyl)amino]-2-methylpropyl}phenyl)-N-(4-methylbenzyl)acetamide], the EC50 came to 0.07 nM.

In the case of `CC(C)(Cc1cccc(CC(=O)NCc2ccc(Cl)cc2)c1)NC[C@H](O)c1ccc(O)c(NS(C)(=O)=O)c1` [Example 12, N-(4-Chlorobenzyl)-2-(3-{2-[((2R)-2-hydroxy-2-{4-hydroxy-3-[(methylsulfonyl)amino]phenyl}ethyl)amino]-2-methylpropyl}phenyl)acetamide], the EC50 turned out to be 0.05 nM.

Regarding `COc1ccc(CNC(=O)Cc2cccc(CC(C)(C)NC[C@H](O)c3ccc(O)c(NS(C)(=O)=O)c3)c2)cc1` [Example 2, 2-(3-{2-[((2R)-2-hydroxy-2-{4-hydroxy-3-[(methylsulfonyl)amino]phenyl}ethyl)amino]-2-methylpropyl}phenyl)-N-(4-methoxybenzyl)acetamide], the concentration giving a half-maximal response (EC50) came out at 0.03 nM.

Take `CC(C)(Cc1cccc(CC(=O)NCCCc2ccccc2)c1)NC[C@H](O)c1ccc(O)c(NS(C)(=O)=O)c1` [Example 26, 2-(3-{2-[((2R)-2-Hydroxy-2-{4-hydroxy-3-[(methylsulfonyl)amino]phenyl}ethyl)amino]-2-methylpropyl}phenyl)-N-(3-phenylpropyl)acetamide]: the EC50 amounted to 0.09 nM.

Regarding `CC(C)(Cc1ccc(CC(=O)NCc2cc(C(F)(F)F)ccc2Cl)cc1)NC[C@H](O)c1ccc(O)c(NS(C)(=O)=O)c1` [Example 67, N-[2-Chloro-5-(trifluoromethyl)benzyl]-2-(4-{2-[((2R)-2-hydroxy-2-{4-hydroxy-3-[(methylsulfonyl)amino]phenyl}ethyl)amino]-2-methylpropyl}phenyl)acetamide], the EC50 is 0.08 nM.

In the case of `C[C@H](Cc1cccc(CC(=O)NCc2ccc(C(F)(F)F)cc2)c1)NC[C@H](O)c1ccc(O)c(NS(C)(=O)=O)c1` [Example 45, 2-(3-{(2R)-2-[((2R)-2-Hydroxy-2-{4-hydroxy-3-[(methylsulfonyl)amino]phenyl}ethyl)amino]propyl}phenyl)-N-[4-(trifluoromethyl)benzyl]acetamide], the EC50 stood at 0.06 nM.

In the case of `C[C@H](Cc1cccc(CC(=O)NCc2ccc(Cl)c(Cl)c2)c1)NC[C@H](O)c1ccc(O)c(NS(C)(=O)=O)c1` [Example 39, N-(3,4-Dichlorobenzyl)-2-(3-{(2R)-2-[((2R)-2-hydroxy-2-{4-hydroxy-3-[(methylsulfonyl)amino]phenyl}ethyl)amino]propyl}phenyl)acetamide], the EC50 was 0.05 nM.

Regarding `CSc1ccccc1CNC(=O)Cc1cccc(CC(C)(C)NC[C@H](O)c2ccc(O)c(NS(C)(=O)=O)c2)c1` [Example 31, 2-(3-{2-[((2R)-2-Hydroxy-2-{4-hydroxy-3-[(methylsulfonyl)amino]phenyl}ethyl)amino]-2-methylpropyl}phenyl)-N-[2-(methylthio)benzyl]acetamide], the EC50 was found to be 0.04 nM.

For the compound `CC(C)(Cc1cccc(CC(=O)NCc2ccc(Cl)c(Cl)c2)c1)NC[C@H](O)c1ccc(O)c(NS(C)(=O)=O)c1` [Example 17, N-(3,4-Dichlorobenzyl)-2-(3-{2-[((2R)-2-hydroxy-2-{4-hydroxy-3-[(methylsulfonyl)amino]phenyl}ethyl)amino]-2-methylpropyl}phenyl)acetamide], the EC50 came to 0.08 nM.
